Series [1] can be described thus: Drug uptake in cytosol of human HCT116 cells at 1 uM after 12 hrs by mass spectrometric analysis. Format: ADME, subcellular, HCT-116.
For series [2], the system named is HCT-116. Put plainly: Antiproliferative activity against human HCT116 cells after 24 hrs by MTT assay. Format: functional, cell-based. Conditions: HCT-116, 24 h.
Series [3] has as its system HCT-116. Put plainly: Induction of apoptosis in human HCT116 cells at 10 uM after 24 hrs by FITC/Annexin-V/7-AAD staining-based FACS analysis. Format: functional, cell-based. For orientation: Flow cytometry measures light scatter and fluorescence of single cells or particles in a stream.
The target of series [4] is T1, Heat shock protein 75 kDa, mitochondrial (Homo sapiens, UniProt Q12931).
T1 sequence (Q12931 whole entry): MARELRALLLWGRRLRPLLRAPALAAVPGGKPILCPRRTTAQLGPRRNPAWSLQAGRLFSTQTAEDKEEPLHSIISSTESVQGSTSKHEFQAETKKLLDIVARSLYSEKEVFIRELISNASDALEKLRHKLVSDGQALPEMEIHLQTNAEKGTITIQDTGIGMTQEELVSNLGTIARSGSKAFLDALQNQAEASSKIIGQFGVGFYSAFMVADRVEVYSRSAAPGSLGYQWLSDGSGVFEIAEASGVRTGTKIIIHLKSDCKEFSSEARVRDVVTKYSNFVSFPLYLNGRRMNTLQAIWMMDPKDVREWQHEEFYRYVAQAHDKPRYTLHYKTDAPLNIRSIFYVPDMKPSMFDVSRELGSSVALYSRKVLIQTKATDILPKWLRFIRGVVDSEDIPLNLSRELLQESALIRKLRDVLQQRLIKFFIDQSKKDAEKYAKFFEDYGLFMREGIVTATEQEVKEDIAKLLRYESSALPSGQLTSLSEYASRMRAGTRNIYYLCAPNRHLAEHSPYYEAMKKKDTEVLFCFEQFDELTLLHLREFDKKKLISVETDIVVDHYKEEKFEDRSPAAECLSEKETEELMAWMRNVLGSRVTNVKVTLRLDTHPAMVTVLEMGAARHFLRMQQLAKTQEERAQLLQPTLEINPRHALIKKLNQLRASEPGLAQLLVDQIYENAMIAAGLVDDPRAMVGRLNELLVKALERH
Description: Inhibition of recombinant human N-terminal His6-tagged TRAP1 (60 to 704 residues) ATPase activity expressed in Escherichia coli BL21-CodonPlus-RIL after overnight incubation by BioMol green dye-based assay

Series [5] can be described thus: Drug uptake in mitochondria of human HCT116 cells at 1 uM after 12 hrs by mass spectrometric analysis. Format: ADME. Conditions: hct-116, 12 h.
Series [6] addresses Heat shock protein HSP 90-alpha (Homo sapiens, UniProt P07900). The experiment in a line: Inhibition of FITC-geldanamycin binding to recombinant human HSP90alpha expressed in Escherichia coli by fluorescence anisotropy method. In general terms: In fluorescence polarisation assays a small probe gives low polarisation when free and higher when bound to something large.
Series [7] relates to HCT-116. The experiment in a line: Induction of apoptosis in human HCT116 cells at 1 to 10 uM after 24 hrs by FITC/Annexin-V/7-AAD staining-based FACS analysis. Format: functional, cell-based.
The subject of series [8] is HCT-116. The experiment in a line: Induction of apoptosis in human HCT116 cells at 0.1 to 10 uM after 24 hrs by FITC/Annexin-V/7-AAD staining-based FACS analysis. Format: functional, cell-based.

We go through eight molecules from ChEMBL document CHEMBL4118223, “New TRAP1 and Hsp90 chaperone inhibitors with cationic components: Preliminary studies on mitochondrial targeting” (Bioorg Med Chem Lett, 2018).

Activity calls are given as the source filed them. The calls are words filed in the database; no cut-off is given here.

One may read the IC50 as the point on the concentration scale where inhibition reaches its midpoint. `CCNC(=O)c1noc(-c2cc(C(C)C)c(O)cc2O)c1NC(=O)CCCCC[n+]1ccccc1.[Br-]`: the Drug uptake result in series [1] is recorded as “Not Active”. Further, the IC50 amounted to 7.86 µM in series [2] and 10 µM in series [4]. The outcome in series [3] was Active.
Consider `CCNC(=O)c1noc(-c2cc(C(C)C)c(O)cc2O)c1NC(=O)CCCCCCc1ccc(C(=O)NC(=N)N)cc1`, for which the values for the Drug uptake result in series [1] and in series [5] were “Not Active” and “Active”, respectively. Moreover, the IC50 is 6.17 µM in series [2] and 3 µM in series [4].
In series [4], `CCNC(=O)c1noc(-c2cc(C(C)C)c(O)cc2O)c1NC(=O)CCN1CCOCC1` showed an IC50 of 20 µM.
For orientation: Kd means the concentration at which binding is half-saturated. Regarding `CCNC(=O)c1noc(-c2cc(C(C)C)c(O)cc2O)c1NC(=O)c1ccc(C(=O)NC(=N)N)cc1`, the Drug uptake result in series [1] is given as “Not Active”; in series [5] it was “Active”. For the same molecule, the IC50 in series [2] came to 1.32 µM; in series [6] it was 0.021 µM. The Kd in series [6] stood at 0.0015 µM. Moreover, the outcome in series [7] was Active.
As to `CCNC(=O)c1noc(-c2cc(C(C)C)c(O)cc2O)c1NC(=O)CCCCC[P+](c1ccccc1)(c1ccccc1)c1ccccc1.[Br-]`, the figures for the Drug uptake entry in series [1] and in series [5] were “Not Active” and “Active”, respectively. Also, the IC50 in series [2] is 5.12 µM; in series [4], 25 µM. The result in series [3] was Active.
With `CCNC(=O)c1noc(-c2cc(C(C)C)c(O)cc2O)c1NC(=O)CCCCC(=O)NCCCNCCNCCCN`, in series [8], the outcome was Active. Further, the Drug uptake result in series [1] was “Not Active”; in series [5], “Active”. Further, the IC50 in series [2] amounted to 26.7 µM; in series [4], 5 µM.
With `COc1cccc(-c2cc(F)ccc2[C@H]2Cc3nc(N)nc(C)c3C(=O)N2)n1`, in series [8], the outcome was Active. Further, in series [5], the Drug uptake result is reported as “Not Active”. In series [4], this molecule returned an IC50 of 0.2 µM.
For `CCNC(=O)c1noc(-c2cc(C(C)C)c(O)cc2O)c1NC(=O)c1ccc(OC)cc1`, in series [8], the outcome was Active. For the same molecule, the IC50 in series [2] is 0.87 µM; in series [4], 0.4 µM. In addition, the Drug uptake result in series [5] was “Not Active”.
